Drawing on the NIST ThermoML archive (doi:10.1021/acs.jced.8b01189), this text covers mass density for 19 compounds.

Numbers after ± are expanded uncertainties.

The conditions of series [1]: 298.15 K; 100 kPa; Liquid; Vibrating tube method.
Series [2] in a line: xn = mol fraction of the nth substance listed. To be noted: 298.15 K, 100 kPa, Liquid, Vibrating tube method.

`CCCCCCCO` [heptan-1-ol]: in series [1], the mass density turned out to be 818.7 ± 1 kg/m3.

Regarding `CCCCC(=O)O` [pentanoic acid] + CCCCCO, the mass density in series [2] (x1 = 0.0807) is listed as 821.4 ± 1 kg/m3; in series [2] (x1 = 0.1596) it was 831.9 ± 1 kg/m3; in series [2] (x1 = 0.2398), 842.4 ± 1 kg/m3; in series [2] (x1 = 0.3501) it was 856.7 ± 1 kg/m3; in series [2] (x1 = 0.4401), 868.2 ± 1 kg/m3; in series [2] (x1 = 0.5604), 883.1 ± 1 kg/m3. Also, the mass density is reported as 894 ± 1 kg/m3 in series [2] (x1 = 0.6498); 904.7 ± 1 kg/m3 in series [2] (x1 = 0.7399); 917.6 ± 1 kg/m3 in series [2] (x1 = 0.8498); 928.1 ± 1 kg/m3 in series [2] (x1 = 0.9396); 935.1 ± 1 kg/m3 in series [2] (x1 = 1).

On to `CCCCCCCCCO` [nonan-1-ol] + CCCCC(=O)O, for which the mass density in series [2] (x2 = 0) is given as 824 ± 1 kg/m3.

Turning to `CCCCC(=O)O` [pentanoic acid] + CCCCCCCCO, the mass density in series [2] (x1 = 0.0809) is given as 828.2 ± 1 kg/m3; in series [2] (x1 = 0.1604), 835.1 ± 1 kg/m3; in series [2] (x1 = 0.2392), 842.4 ± 1 kg/m3; in series [2] (x1 = 0.3496), 853 ± 1 kg/m3; in series [2] (x1 = 0.4399), 862.3 ± 1 kg/m3; in series [2] (x1 = 0.5605) it was 875.5 ± 1 kg/m3. Also, the mass density was 886.1 ± 1 kg/m3 in series [2] (x1 = 0.6497); 897.4 ± 1 kg/m3 in series [2] (x1 = 0.7401); 912.4 ± 1 kg/m3 in series [2] (x1 = 0.8504); 925.7 ± 1.1 kg/m3 in series [2] (x1 = 0.9403); 935.1 ± 1 kg/m3 in series [2] (x1 = 1).

On to `CCCCCCCCCO` [nonan-1-ol], for which the mass density in series [1] is recorded as 824 ± 1 kg/m3.

For the compound `CCCCCCO` [hexan-1-ol] + CCCCC(=O)O, in series [2] (x2 = 0), the mass density was determined as 815.1 ± 1 kg/m3.

Regarding `CCCCC(=O)O` [pentanoic acid] + CCCCCCO, the mass density in series [2] (x1 = 0.0924) was determined as 825.4 ± 1 kg/m3; in series [2] (x1 = 0.1783), 835.2 ± 1 kg/m3; in series [2] (x1 = 0.264), 845.1 ± 1 kg/m3; in series [2] (x1 = 0.3796), 858.6 ± 1 kg/m3; in series [2] (x1 = 0.4718), 869.5 ± 1 kg/m3; in series [2] (x1 = 0.5914), 883.9 ± 1 kg/m3. Further, the mass density in series [2] (x1 = 0.6785) is 894.5 ± 1 kg/m3; in series [2] (x1 = 0.7639) it was 905 ± 1 kg/m3; in series [2] (x1 = 0.8656), 917.8 ± 1 kg/m3; in series [2] (x1 = 0.9468), 928.2 ± 1 kg/m3; in series [2] (x1 = 1), 935.1 ± 1 kg/m3.

`CCCCCO` [pentan-1-ol]: the mass density in series [1] came out at 810.8 ± 1 kg/m3.

On to `CCCCCCCCO` [octan-1-ol] + CCCCC(=O)O, for which, in series [2] (x2 = 0), the mass density was 821.4 ± 1 kg/m3.

`CCCCCCCCCCO` [decan-1-ol]: in series [1], the mass density stood at 826.1 ± 1 kg/m3.

For `CCCCC(=O)O` [pentanoic acid] + CCCCCCCCCCO, the mass density in series [2] (x1 = 0.0809) is 831.4 ± 1 kg/m3; in series [2] (x1 = 0.1598), 837 ± 1 kg/m3; in series [2] (x1 = 0.2406), 843 ± 1 kg/m3; in series [2] (x1 = 0.3493), 852 ± 1 kg/m3; in series [2] (x1 = 0.4405) it was 860.2 ± 1 kg/m3; in series [2] (x1 = 0.5601) it was 872.3 ± 1 kg/m3. The mass density in series [2] (x1 = 0.6502) was found to be 882.5 ± 1 kg/m3; in series [2] (x1 = 0.7406), 893.9 ± 1 kg/m3; in series [2] (x1 = 0.8504) it was 909.6 ± 1.1 kg/m3; in series [2] (x1 = 0.9411) it was 924.2 ± 1.1 kg/m3; in series [2] (x1 = 1), 935.1 ± 1 kg/m3.

Turning to `CCCCC(=O)O` [pentanoic acid], in series [1], the mass density is 935.1 ± 1 kg/m3.

Take `CCCCCCO` [hexan-1-ol]: the mass density in series [1] stood at 815.1 ± 1 kg/m3.

Take `CCCCCCCO` [heptan-1-ol] + CCCCC(=O)O: in series [2] (x2 = 0), the mass density is reported as 818.7 ± 1 kg/m3.

In the case of `CCCCC(=O)O` [pentanoic acid] + CCCCCCCO, the mass density in series [2] (x1 = 0.0812) was found to be 826.5 ± 1 kg/m3; in series [2] (x1 = 0.1601), 834.3 ± 1 kg/m3; in series [2] (x1 = 0.24) it was 842.5 ± 1 kg/m3; in series [2] (x1 = 0.3506), 854.2 ± 1 kg/m3; in series [2] (x1 = 0.4398), 864 ± 1 kg/m3; in series [2] (x1 = 0.5605), 877.8 ± 1 kg/m3. The mass density in series [2] (x1 = 0.6496) came to 888.5 ± 1 kg/m3; in series [2] (x1 = 0.7405), 899.7 ± 1 kg/m3; in series [2] (x1 = 0.8501), 914.1 ± 1 kg/m3; in series [2] (x1 = 0.9405) it was 926.5 ± 1 kg/m3; in series [2] (x1 = 1), 935.1 ± 1 kg/m3.

On to `CCCCCO` [pentan-1-ol] + CCCCC(=O)O, for which the mass density in series [2] (x2 = 0) was 810.8 ± 1 kg/m3.

Consider `CCCCC(=O)O` [pentanoic acid] + CCCCCCCCCO, for which the mass density in series [2] (x1 = 0.0802) is 830 ± 1 kg/m3; in series [2] (x1 = 0.1604) it was 836.1 ± 1 kg/m3; in series [2] (x1 = 0.2394), 842.8 ± 1 kg/m3; in series [2] (x1 = 0.3496) it was 852.5 ± 1 kg/m3; in series [2] (x1 = 0.4397) it was 861.2 ± 1 kg/m3; in series [2] (x1 = 0.5605), 873.9 ± 1 kg/m3. In addition, the mass density in series [2] (x1 = 0.6497) amounted to 884.3 ± 1 kg/m3; in series [2] (x1 = 0.7401), 895.6 ± 1 kg/m3; in series [2] (x1 = 0.8502) it was 911 ± 1 kg/m3; in series [2] (x1 = 0.9403), 925 ± 1.1 kg/m3; in series [2] (x1 = 1), 935.1 ± 1 kg/m3.

As to `CCCCCCCCO` [octan-1-ol], the mass density in series [1] is reported as 821.4 ± 1 kg/m3.

On to `CCCCCCCCCCO` [decan-1-ol] + CCCCC(=O)O, for which, in series [2] (x2 = 0), the mass density was 826.1 ± 1 kg/m3.
